From ChEMBL document CHEMBL4689842, “EUbOPEN Chemogenomics Library wave 1” (2021)
Where a SMILES comes first, the peptide text is derived from it. [ ]: non-standard residue; d: D form. Arg(Me) = CNC(=N)NCCC[C@H](N)C(=O)O; d4Pal = N[C@H](Cc1ccncc1)C(=O)O; azaGly = NNC(=O)O

Columns and labels:
Type in all cases: toxicity, cell-based
Fibroblast = assay: Incucyte cell viability with human fibroblast; details: 10 µM, compound concentration 10 uM
HEK-293T = assay: Incucyte cell viability with HEK293T; details: human, 10 µM, compound concentration 10 uM
U2OS = assay: Incucyte cell viability with U2OS; details: human, 10 µM, compound concentration 10 uM
[1] = 0 h, replicate number 2, timepoint 0 hours
[2] = 6 h, replicate number 1, timepoint 6 hours
[3] = 12 h, replicate number 1, timepoint 12 hours
[4] = 18 h, replicate number 1, timepoint 18 hours
[5] = 24 h, replicate number 1, timepoint 24 hours
[6] = 24 h, replicate number 2, timepoint 24 hours
[7] = 0 h, replicate number 1, timepoint 0 hours
[8] = 18 h, replicate number 2, timepoint 18 hours
[9] = 6 h, replicate number 2, timepoint 6 hours
[10] = 12 h, replicate number 2, timepoint 12 hours
Further: filed as whole numbers so only -1 and 0 and 1 occur.

| SMILES | Growth Rate (Fibroblast; [2]) | Growth Rate (Fibroblast; [3]) | Growth Rate (Fibroblast; [4]) | Growth Rate (Fibroblast; [5]) | Growth Rate (Fibroblast; [6]) | Growth Rate (HEK-293T; [2]) | Growth Rate (HEK-293T; [3]) | Growth Rate (HEK-293T; [4]) | Growth Rate (HEK-293T; [5]) | Growth Rate (U2OS; [7]) | Growth Rate (U2OS; [2]) | Growth Rate (U2OS; [3]) | Growth Rate (U2OS; [4]) | Growth Rate (U2OS; [8]) | Growth Rate (U2OS; [5]) | Growth Rate (Fibroblast; [7]) | Growth Rate (HEK-293T; [7]) | Growth Rate (HEK-293T; [1]) | Growth Rate (U2OS; [1]) | Growth Rate (U2OS; [6]) | further results |
| --- | --- | --- | --- | --- | --- | --- | --- | --- | --- | --- | --- | --- | --- | --- | --- | --- | --- | --- | --- | --- | --- |
| Cc1cc(Nc2nccc(C)n2)cc(-c2cnc([C@@]3(O)CC[C@H](C(=O)O)C(C)(C)C3)s2)c1 [MRL-SYKi] | 0 | 0 | 0 | 1 | 0 | 0 | 0 | 0 | 0 | 0 | 0 | 0 | 0 | 1 | 0 | – | – | – | – | – | Growth Rate (Fibroblast; [1]): 1 |
| CN([C@@H]1CCc2c(CC(=O)O)c3cc(S(C)(=O)=O)ccc3n2C1)S(=O)(=O)c1ccc(F)cc1 [CRTH2-negative-control] | – | 1 | 1 | 1 | 0 | 0 | 0 | 0 | 0 | 0 | 0 | 1 | 0 | 1 | 0 | 0 | 1 | 0 | – | – | Growth Rate (Fibroblast; [9]): 0; Growth Rate (Fibroblast; [10]): 0; Growth Rate (Fibroblast; [8]): 0; Growth Rate (HEK-293T; [9]): 1; Growth Rate (HEK-293T; [10]): 1; Growth Rate (HEK-293T; [8]): 1; Growth Rate (HEK-293T; [6]): 1; Growth Rate (U2OS; [10]): 0 |
| C=C1/C(=C\C=C2/CCC[C@]3(C)[C@@H]([C@H](C)/C=C/C=C/C(O)(CC)CC)CC[C@@H]23)C[C@@H](O)C[C@@H]1O [SEOCALCITOL] | – | – | – | 1 | – | 1 | 0 | 0 | 0 | – | – | 1 | 1 | 0 | 1 | 0 | 0 | – | 1 | 0 | Growth Rate (Fibroblast; [9]): 0; Growth Rate (Fibroblast; [10]): 0; Growth Rate (Fibroblast; [8]): 1; Growth Rate (HEK-293T; [9]): 0; Growth Rate (U2OS; [9]): 0 |
| Cc1cccc([C@H](C)c2c[nH]cn2)c1C.Cl [DEXMEDETOMIDINE HYDROCHLORIDE] | – | – | – | 1 | – | 0 | 0 | 0 | 0 | 0 | – | 1 | 0 | 1 | 1 | 0 | 0 | – | – | – | Growth Rate (Fibroblast; [10]): 1; Growth Rate (Fibroblast; [8]): 1; Growth Rate (U2OS; [9]): 0 |
| CN(c1ccnc(CNc2nc(Nc3ccc4c(c3)CC(=O)N4)ncc2C(F)(F)F)n1)S(C)(=O)=O [PF-00911705] | – | 1 | 0 | 1 | 0 | 0 | 0 | 0 | 0 | – | 0 | 0 | 0 | – | 0 | 0 | – | – | 0 | – | Growth Rate (Fibroblast; [9]): 0; Growth Rate (Fibroblast; [10]): 0 |
| O=C(Nc1cnc(Oc2ccc(F)cc2)nc1)N1CCc2ncccc2[C@@H]1c1ccc(F)cc1 [BAY-899] | 1 | 1 | 1 | 1 | – | 0 | 0 | 0 | 0 | 0 | – | 1 | 1 | – | 0 | 0 | 0 | – | – | 1 | Growth Rate (HEK-293T; [9]): 1 |
| CNC(=N)NCCC[C@H](NC(=O)[C@H](CC(C)C)NC(=O)NNC(=O)[C@H](Cc1ccccc1)NC(=O)[C@H](CO)NC(=O)[C@H](CC(N)=O)NC(=O)[C@@H](Cc1ccncc1)NC(=O)[C@H](N)Cc1ccc(O)cc1)C(=O)N[C@@H](Cc1ccccc1)C(N)=O [KISS1-305] (H-[dY][d4Pal]NSF[azaGly]L[Arg(Me)]F-NH2) | 0 | 0 | 0 | 0 | – | 0 | 1 | 0 | 0 | – | – | 1 | 0 | – | 0 | 0 | 0 | – | 0 | – | Growth Rate (HEK-293T; [10]): 0; Growth Rate (U2OS; [9]): 1 |
| O=C(/C=C/N1C[C@H]2C[C@@H]1CN2c1ccccn1)c1ccccc1O | 1 | 1 | 1 | 1 | – | – | – | – | – | 0 | 0 | 1 | 0 | – | 0 | – | 0 | 1 | – | – | Growth Rate (Fibroblast; [1]): 0; Growth Rate (U2OS; [10]): 0 |
| COc1ccc(C2(O)OC(=O)C(c3ccc4c(c3)OCO4)=C2Cc2cc(OC)c(OC)c(OC)c2)cc1 (stereo not given) [PD-156707] | 0 | 0 | 0 | 0 | 1 | 1 | 1 | 0 | 0 | – | 1 | 0 | 0 | 1 | 0 | 1 | 0 | – | 1 | 1 | Growth Rate (Fibroblast; [1]): 0; Growth Rate (Fibroblast; [8]): 1; Growth Rate (HEK-293T; [9]): 0; Growth Rate (HEK-293T; [10]): 0; Growth Rate (U2OS; [10]): 1 |
| C[C@@H]1CCN(C(=O)CC#N)C[C@@H]1N(C)c1ncnc2[nH]ccc12.O=C(O)CC(O)(CC(=O)O)C(=O)O [TOFACITINIB CITRATE] | – | 1 | 1 | 1 | – | 0 | 0 | 1 | 1 | 0 | 0 | 0 | 0 | – | 0 | 0 | 1 | 0 | – | – | Growth Rate (HEK-293T; [10]): 1 |
| C[C@@]1(Cc2ccc(C#N)cc2)C(=O)N(c2cc(Cl)cc(Cl)c2)c2ncc(C(=O)NC3(c4nc(C5CCC5)no4)CC3)n21 [BI 9446] | 0 | 0 | 0 | 0 | – | 0 | 0 | 0 | 0 | 0 | – | 1 | 1 | 0 | 1 | 0 | 0 | – | – | 0 | Growth Rate (U2OS; [9]): 0; Growth Rate (U2OS; [10]): 0 |
| CC(=O)C1=C(C)N(c2cccc(C(F)(F)F)c2)C(=O)N[C@H]1c1ccc(C#N)nc1 [BAY-677] | 0 | 0 | 0 | 0 | – | – | – | 1 | 1 | 0 | 1 | 1 | 1 | 0 | 0 | 0 | 0 | – | 1 | – | Growth Rate (Fibroblast; [9]): 1; Growth Rate (U2OS; [9]): 0; Growth Rate (U2OS; [10]): 0 |
| CCn1cc(-c2cccc(C(F)(F)F)c2)c2sc(C(=N)NC3CCS(=O)(=O)CC3)cc2c1=O | 0 | 0 | 0 | 0 | 1 | 0 | 0 | 0 | 0 | – | 1 | 0 | 0 | 1 | 0 | – | – | – | 0 | 1 | – |
| N#Cc1ccc(NC(=O)Nc2ccccc2Br)c2nn[nH]c12 | 1 | 1 | 1 | 1 | – | – | 1 | 1 | 1 | 0 | – | 1 | 1 | – | 1 | 0 | 0 | – | 1 | – | Growth Rate (Fibroblast; [1]): 1; Growth Rate (HEK-293T; [9]): 1; Growth Rate (U2OS; [9]): 1 |
| COc1ccc(Cn2ccc3ccc(C(=O)NO)cc32)cc1 | – | – | 1 | 1 | – | – | – | – | – | 0 | 0 | 1 | 1 | – | 0 | 0 | 0 | 1 | 1 | – | Growth Rate (Fibroblast; [9]): 1; Growth Rate (Fibroblast; [10]): 1; Growth Rate (Fibroblast; [8]): 0; Growth Rate (U2OS; [10]): 0 |
| CN1C(=O)[C@@H](N2CCc3cn(Cc4ccccc4)nc3C2=O)COc2ccccc21 [TP-030-1] | 0 | 0 | 0 | 0 | – | – | – | – | – | – | 1 | 1 | 1 | – | 1 | – | 0 | 1 | 0 | – | Growth Rate (Fibroblast; [1]): 1; Growth Rate (HEK-293T; [6]): 1 |
| CCCCN1CCC(COC(=O)c2cc(Cl)c(N)c3c2OCCO3)CC1.Cl | – | – | 1 | 1 | 0 | 0 | 0 | 0 | 0 | 1 | 1 | 1 | 1 | 0 | 1 | 0 | 1 | 0 | – | 0 | Growth Rate (Fibroblast; [9]): 0; Growth Rate (Fibroblast; [10]): 0; Growth Rate (Fibroblast; [8]): 0; Growth Rate (HEK-293T; [9]): 1; Growth Rate (HEK-293T; [10]): 1; Growth Rate (HEK-293T; [8]): 1; Growth Rate (U2OS; [9]): 0; Growth Rate (U2OS; [10]): 0 |
| Cc1nc(C(=O)N2CCC[C@H]2Cc2nnc(-c3ccccc3)o2)c(-c2ccccc2F)s1 | 0 | 0 | 1 | 0 | 1 | 0 | 0 | 0 | 0 | – | 0 | 0 | 1 | – | 0 | 1 | – | 0 | – | 1 | – |
| CN(C)S(=O)(=O)c1ccc(NC(=S)N2CCC(C(O)(c3ccccc3)c3ccccc3)CC2)cc1 | 0 | 0 | 0 | 0 | 1 | 0 | 0 | 0 | 0 | – | 1 | 0 | 1 | – | 0 | 0 | – | 0 | 0 | 1 | Growth Rate (Fibroblast; [8]): 1 |
